Laboratory results as given in PubChem BioAssay AID330 (DTP/NCI, 2004).
“And” between values parts separate entries of the source, which are not always exact repeats. Equal entries are not always repeated. Inconclusive results and toxic doses are left out.

Tested on: P388 leukemia ip, CD2F1 mice, survival T/C
Experiment: NCI In Vivo Anticancer Drug Screen. Data for tumor model P388 Leukemia (intraperitoneal) in CD2F1 (CDF1) mice
Conditions: endpoint: median survival time, higher = longer survival
Procedure, shortened: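 Mice carrying the transplanted tumor received test compound or vehicle. Survival was recorded in each group, and the value is the treated-group measurement divided by that of the vehicle-treated control group.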

[1] = dose: 25.0 mg/kg/injection, schedule: Q01DX009 (ip), vehicle: saline with Tween-80

CCN(CC)P(c1ccccc1)N(CC)CC
T/C (dose: 100.0 mg/kg/injection, schedule: Q01DX001 (ip), vehicle: saline): 101 % of control
T/C (dose: 200.0 mg/kg/injection, schedule: Q01DX001 (ip), vehicle: saline): 111 % of control
T/C (dose: 400.0 mg/kg/injection, schedule: Q01DX001 (ip), vehicle: saline): 104 % of control

C=C(C)C(=O)OCCn1c(=O)c2c(ncn2C)n(C)c1=O
T/C (dose: 60.0 mg/kg/injection, schedule: Q01DX005 (ip), vehicle: saline with Tween-80): 96 % of control
T/C (dose: 120.0 mg/kg/injection, schedule: Q01DX005 (ip), vehicle: saline with Tween-80): 101 % of control
T/C (dose: 240.0 mg/kg/injection, schedule: Q01DX005 (ip), vehicle: saline with Tween-80): 92 % of control

CCCCCCCCCCCCCCCCCSCc1ccc(Nc2ccccc2)cc1
T/C [1]: 108 % of control
T/C (dose: 50.0 mg/kg/injection, schedule: Q01DX009 (ip), vehicle: other): 116 % of control
T/C (dose: 50.0 mg/kg/injection, schedule: Q01DX009 (ip), vehicle: saline with Tween-80): 103 % of control and 108 % of control
T/C (dose: 100.0 mg/kg/injection, schedule: Q01DX009 (ip), vehicle: other): 116 % of control
T/C (dose: 100.0 mg/kg/injection, schedule: Q01DX009 (ip), vehicle: saline with Tween-80): 103 % of control
T/C (dose: 200.0 mg/kg/injection, schedule: Q01DX009 (ip), vehicle: other): 118 % of control
T/C (dose: 200.0 mg/kg/injection, schedule: Q01DX009 (ip), vehicle: saline with Tween-80): 116 % of control and 93 % of control

COc1ccc(C2(c3ccc(OC)cc3)N=C(N(C)C)NC2=O)cc1
T/C (dose: 50.0 mg/kg/injection, schedule: Q04DX002 (ip), vehicle: saline with Tween-80): 102 % of control
T/C (dose: 100.0 mg/kg/injection, schedule: Q04DX002 (ip), vehicle: saline with Tween-80): 97 % of control
T/C (dose: 200.0 mg/kg/injection, schedule: Q04DX002 (ip), vehicle: saline with Tween-80): 94 % of control

CC(=O)[O-].CC(=O)[O-].CC(=O)[O-].CC(=O)[O-].Cn1c(=O)c2[nH]cnc2n(C)c1=O.Cn1c(=O)c2[nH]cnc2n(C)c1=O.[Rh+2].[Rh+2]
T/C (dose: 3.12 mg/kg/injection, schedule: Q04DX002 (ip), vehicle: Klucel (hydroxypropylcellulose) (HPC)): 100 % of control
T/C (dose: 6.25 mg/kg/injection, schedule: Q04DX002 (ip), vehicle: Klucel (hydroxypropylcellulose) (HPC)): 101 % of control and 120 % of control
T/C (dose: 12.5 mg/kg/injection, schedule: Q04DX002 (ip), vehicle: Klucel (hydroxypropylcellulose) (HPC)): 101 % of control and 118 % of control
T/C (dose: 25.0 mg/kg/injection, schedule: Q04DX002 (ip), vehicle: Klucel (hydroxypropylcellulose) (HPC)): 103 % of control and 110 % of control
T/C (dose: 50.0 mg/kg/injection, schedule: Q04DX002 (ip), vehicle: Klucel (hydroxypropylcellulose) (HPC)): 103 % of control

CC(=O)Oc1cc2c(cc1Cc1ccc3c(c1)OCO3)OCO2
T/C (dose: 50.0 mg/kg/injection, schedule: Q01DX005 (ip), vehicle: Klucel (hydroxypropylcellulose) (HPC)): 101 % of control
T/C (dose: 100.0 mg/kg/injection, schedule: Q01DX005 (ip), vehicle: Klucel (hydroxypropylcellulose) (HPC)): 95 % of control
T/C (dose: 200.0 mg/kg/injection, schedule: Q01DX005 (ip), vehicle: Klucel (hydroxypropylcellulose) (HPC)): 100 % of control

Cc1nc2cc(C)n3c(C)nnc3n2n1
T/C (dose: 50.0 mg/kg/injection, schedule: Q01DX005 (ip), vehicle: saline with Tween-80): 105 % of control
T/C (dose: 100.0 mg/kg/injection, schedule: Q01DX005 (ip), vehicle: saline with Tween-80): 100 % of control
T/C (dose: 200.0 mg/kg/injection, schedule: Q01DX005 (ip), vehicle: saline with Tween-80): 100 % of control

ClCC#CCOc1c(Cl)cccc1Cl
T/C (dose: 50.0 mg/kg/injection, schedule: Q01DX009 (ip), vehicle: saline): 86 % of control
T/C (dose: 100.0 mg/kg/injection, schedule: Q01DX009 (ip), vehicle: saline): 92 % of control
T/C (dose: 200.0 mg/kg/injection, schedule: Q01DX009 (ip), vehicle: saline): 98 % of control

Cc1ccc2c(c1)[C@]1(C)O[C@@H](C=C[C@@H]1O)O2
T/C (dose: 100.0 mg/kg/injection, schedule: Q01DX001 (ip), vehicle: Klucel (hydroxypropylcellulose) (HPC)): 104 % of control
T/C (dose: 200.0 mg/kg/injection, schedule: Q01DX001 (ip), vehicle: Klucel (hydroxypropylcellulose) (HPC)): 102 % of control

CN1CCC(=C(C#N)C(=O)O)CC1
T/C (dose: 50.0 mg/kg/injection, schedule: Q01DX005 (ip), vehicle: saline): 103 % of control
T/C (dose: 100.0 mg/kg/injection, schedule: Q01DX005 (ip), vehicle: saline): 95 % of control
T/C (dose: 200.0 mg/kg/injection, schedule: Q01DX005 (ip), vehicle: saline): 103 % of control

CCOC(=O)C1=C(Nc2ccc(OC)cc2)C(N)=NC1=N
T/C (dose: 6.25 mg/kg/injection, schedule: Q01DX009 (ip), vehicle: suspension in saline): 100 % of control
T/C (dose: 12.5 mg/kg/injection, schedule: Q01DX009 (ip), vehicle: suspension in saline): 102 % of control and 110 % of control
T/C (dose: 25.0 mg/kg/injection, schedule: Q01DX009 (ip), vehicle: suspension in saline): 106 % of control and 117 % of control
T/C (dose: 50.0 mg/kg/injection, schedule: Q01DX009 (ip), vehicle: suspension in saline): 102 % of control and 121 % of control
T/C (dose: 100.0 mg/kg/injection, schedule: Q01DX009 (ip), vehicle: suspension in saline): 92 % of control

Nc1ncnc2c1cnn2C1OC(CO)C(O)C1O (stereo not drawn)
T/C (dose: 16.5 mg/kg/injection, schedule: Q01DX009 (ip), vehicle: saline with Tween-80): 152 % of control
T/C [1]: 154 % of control
T/C (dose: 37.5 mg/kg/injection, schedule: Q01DX009 (ip), vehicle: saline with Tween-80): 124 % of control
